Key:
VZV = VZV plaque reduction assay; assay type: cell-based; conditions: Human alphaherpesvirus 3; plaque reduction in monolayers of MRC5 or Detroit 532 cells; read-out: VZV 1C50
Method: Antiviral testing against VZV was determined by measuring the ability of the compound to reverse the cytophathic effect of VZV infection.
VZV is assayed in monolayers of either MRC5 cells (human embryonic lung) or Detroit 532 cells (human foreskin fibroblasts) in multiwell trays. Activity of compounds is determined in the plaque reduction assay, in which a cell monolayer is infected with a suspension of VZV. Plaque numbers of each concentration are expressed as percentage of the control and a dose-response curve is drawn. From this curve the 50% inhibitory concentration (IC₅₀) is estimated.

[1] = Cell growth inhibition assay (MTT uptake); assay type: cell-based; conditions: monkey, Vero cells, 50% inhibition of cell viability at 96 hours, read-out: Toxicity CCID50(Vero)
Method: Cell toxicity is assessed in a cell growth inhibition assay. Subconfluent cultures of Vero cells grown on 96-well microtiter dishes are exposed to different dilutions of drug, and cell viability determined daily on replicate cultures using uptake of a tetrazolium dye (MTT). The concentration required for a 50% inhibition of cell vaibility at 96 hours is termed CCID₅₀.

| Compound | IC50 (VZV) [µM] | CC50 at 96 h [1] [µM] |
| --- | --- | --- |
| CC#Cc1cn([C@@H]2O[C@H](CO)[C@@H](O)[C@H]2F)c(=O)nc1N [2'-Deoxy-2'-fluoro-5-prop-1-ynylcytidine, 2′-Deoxy-2′-fluoro-5-prop-1-ynylcytidine] | 2.3 | > 500 |
| CC#Cc1cn([C@@H]2O[C@H](CO)[C@@H](O)[C@H]2F)c(=O)[nH]c1=O [2'-Deoxy-2'-fluoro-5-prop-1-ynyluridine, 2′-Deoxy-2′-fluoro-5-prop-1-ynyluridine] | 2.6 | > 500 |
| C#Cc1cn([C@@H]2O[C@H](CO)[C@@H](O)[C@H]2F)c(=O)nc1N [2'-Deoxy-5-ethynyl-2'-fluorocytidine, 2′-Deoxy-5-ethynyl-2′fluorocytidine] | 5.3 | > 500 |
| C#Cc1cn([C@@H]2O[C@H](CO)[C@@H](O)[C@H]2F)c(=O)[nH]c1=O [2'-Deoxy-5-ethynyl-2'-fluorouridine, 2′-Deoxy-5-ethynyl-2′-fluoro uridine] | 2.16 | 156 |

— EP0453247A2, “Anti-viral compounds” (THE WELLCOME FOUNDATION LIMITED, priority 1990, dated 1991)
